IC50 data for one substance are collected here from publication PMC8979230 (RSC Advances, 2022).

The target of the experiment is PDE10A (Homo sapiens, UniProt Q9Y233). The experiment is classed as biochemical.
Sequence of PDE10A (Q9Y233 whole entry): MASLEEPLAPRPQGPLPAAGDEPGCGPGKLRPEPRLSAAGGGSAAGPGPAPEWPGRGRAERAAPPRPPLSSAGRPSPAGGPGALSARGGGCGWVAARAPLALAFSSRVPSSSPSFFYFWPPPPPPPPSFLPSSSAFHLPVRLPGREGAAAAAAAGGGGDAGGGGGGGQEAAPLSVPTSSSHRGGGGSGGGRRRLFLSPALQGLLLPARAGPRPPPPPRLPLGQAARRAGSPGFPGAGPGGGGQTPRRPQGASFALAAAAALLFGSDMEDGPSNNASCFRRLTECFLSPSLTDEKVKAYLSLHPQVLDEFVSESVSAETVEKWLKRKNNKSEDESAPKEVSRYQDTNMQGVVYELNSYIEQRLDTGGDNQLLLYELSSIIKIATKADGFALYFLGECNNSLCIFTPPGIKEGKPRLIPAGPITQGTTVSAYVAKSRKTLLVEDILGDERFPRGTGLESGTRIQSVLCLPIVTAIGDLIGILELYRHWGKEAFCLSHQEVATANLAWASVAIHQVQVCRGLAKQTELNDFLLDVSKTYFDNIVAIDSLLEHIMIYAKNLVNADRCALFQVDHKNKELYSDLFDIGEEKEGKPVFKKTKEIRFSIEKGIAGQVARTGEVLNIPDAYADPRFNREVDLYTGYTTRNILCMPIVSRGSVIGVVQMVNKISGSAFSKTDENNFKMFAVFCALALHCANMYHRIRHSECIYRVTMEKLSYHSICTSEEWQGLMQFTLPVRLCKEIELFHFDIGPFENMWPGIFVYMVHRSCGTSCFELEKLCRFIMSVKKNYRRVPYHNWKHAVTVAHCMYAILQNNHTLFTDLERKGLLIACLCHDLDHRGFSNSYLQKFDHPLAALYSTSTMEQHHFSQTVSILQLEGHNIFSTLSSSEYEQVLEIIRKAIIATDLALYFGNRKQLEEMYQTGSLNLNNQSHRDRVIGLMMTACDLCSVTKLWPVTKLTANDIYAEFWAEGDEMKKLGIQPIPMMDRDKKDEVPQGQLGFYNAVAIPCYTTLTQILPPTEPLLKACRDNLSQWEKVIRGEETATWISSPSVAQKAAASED

By IC50 is commonly meant the concentration that inhibits the measured activity by half. Higher therefore signals a need for much substance. Take Zinc42657360: the IC50 was found to be 1600 nM.
